Source: patent US7012077B2, “Substituted cyclohexane derivatives” (Hoffmann-La Roche Inc., priority 2001, dated 2006)

| melting point | SMILES |
| --- | --- |
| 83 to 84 °C (dec.) | CN(C)CC#C[C@H]1CC[C@H](N(C)c2ncc(Br)cn2)CC1 [Example 2, trans-(5-Bromo-pyrimidin-2-yl)-[4-(3-dimethylamino-prop-1-ynyl)-cyclohexyl]-methyl-amine] |
| 108.3 to 109.5 °C | CN(C)C[C@H]1CC[C@H](CCNc2ncc(Br)cn2)CC1 [Example 12, trans-(5-Bromo-pyrimidin-2-yl)-[2-(4-dimethylaminomethyl-cyclohexyl)-ethyl]-amine] |
| 49 to 50 °C | CCCc1cnc(N(C)C[C@H]2CC[C@H](C#CCN(C)C)CC2)nc1 [Example 23.1, trans-[4-(3-Dimethylamino-prop-1-ynyl)-cyclohexylmethyl]-methyl-(5-propyl-pyrimidin-2-yl)-amine] |
| 71 to 72 °C | CN(C)CC#C[C@H]1CC[C@H](CN(C)c2ncc(Br)cn2)CC1 [Example 16, trans-(5-Bromo-pyrimidin-2-yl)-[4-(3-dimethylamino-prop-1-ynyl)-cyclohexylmethyl]-methyl-amine] |
